Patent US12577255B2, “MDM2-based modulators of proteolysis and associated methods of use” (Arvinas Operations, Inc., priority 2015, dated 2026)

molecular target: T1, bromodomain-containing protein 4 (BRD4) (Homo sapiens, UniProt O60885); assay: BRD4 Western blot (degradation); type: cell-based; conditions: at 1 μM; VCaP cells, 16 h
T1 construct: VCaP cells were chased from ATCC and cultured in Dulbecco's Modified Eagle's Medium; host or cells: VCaP
Experimental: (§1) The following biological assays were performed to evaluate the protein degradation in various cell types using representative compounds disclosed. The degradation of the following proteins were evaluated: bromodomain-containing protein 4 (BRD4), androgen receptor (AR), c-Myc, c-Jun N-terminal kinases (JNK), and enhancer of zeste homolog 2 (EZH2).
VCaP cells were chased from ATCC and cultured in Dulbecco's Modified Eagle's Medium (ATCC), supplemented with 10% FBS (ATCC) and Penicillin/Streptomycin (Life Technologies). DMSO control and compound treatments (0.03 μM to 1 μM) were performed in 12-well plates for 16 h. cells were harvested, and lysed in RIPA buffer (50 mM Tris pH8, 150 mM NaCl, 1% Tx-100, 0.1% SDS, 0.5% sodium deoxycholate) supplemented with protease and phosphatase inhibitors. Lysates were clarified at 16,000 g for 10 minutes, and protein concentration was determined. Equal amount of protein (20 μg) was subjected to SDS-PAGE analysis and followed by immunoblotting according to standard protocols. The antibodies used were BRD4 (Cell signaling #13440), and Actin (Sigma #5441). Detection reagents were Clarity Western ELC substrate (Bio-rad #170-5060).

`Cc1sc2c(c1C)C(c1ccc(Cl)cc1)=N[C@@H](CC(=O)NCCOCCOCCOCCOCCOCCNC(=O)C1NC(CC(C)(C)C)C(C#N)(c3ccc(Cl)cc3F)C1c1cccc(Cl)c1F)c1nnc(C)n1-2` (stereo partly drawn) [Compound A1283, N-(17-{[3-(3-chloro-2-fluorophenyl)-4-(4-chloro-2-fluorophenyl)-4-cyano-5-(2,2-dimethylpropyl)pyrrolidin-2-yl]formamido}-3,6,9,12,15-pentaoxaheptadecan-1-yl)-2-[(9S)-7-(4-chlorophenyl)-4,5,13-trimethyl-3-thia-1,8,11,12-tetraazatricyclo-[8.3.0.0^2,^6]trideea-2(6),4,7,10,12-pentaen-9-yl]acetamide] was tested. Which “Degradation activity BRD4” value did it give?
Its value is “B (25 to 50% degradation at 1 μM)”.

molecular target: T2, androgen receptor (AR) (Homo sapiens, UniProt P10275); assay: AR ELISA assay (degradation); type: cell-based; conditions: VCaP cells, 16 h
T2 construct: detects endogenous levels of total androgen receptor protein; host or cells: VCaP
T2 sequence (P10275 1-920): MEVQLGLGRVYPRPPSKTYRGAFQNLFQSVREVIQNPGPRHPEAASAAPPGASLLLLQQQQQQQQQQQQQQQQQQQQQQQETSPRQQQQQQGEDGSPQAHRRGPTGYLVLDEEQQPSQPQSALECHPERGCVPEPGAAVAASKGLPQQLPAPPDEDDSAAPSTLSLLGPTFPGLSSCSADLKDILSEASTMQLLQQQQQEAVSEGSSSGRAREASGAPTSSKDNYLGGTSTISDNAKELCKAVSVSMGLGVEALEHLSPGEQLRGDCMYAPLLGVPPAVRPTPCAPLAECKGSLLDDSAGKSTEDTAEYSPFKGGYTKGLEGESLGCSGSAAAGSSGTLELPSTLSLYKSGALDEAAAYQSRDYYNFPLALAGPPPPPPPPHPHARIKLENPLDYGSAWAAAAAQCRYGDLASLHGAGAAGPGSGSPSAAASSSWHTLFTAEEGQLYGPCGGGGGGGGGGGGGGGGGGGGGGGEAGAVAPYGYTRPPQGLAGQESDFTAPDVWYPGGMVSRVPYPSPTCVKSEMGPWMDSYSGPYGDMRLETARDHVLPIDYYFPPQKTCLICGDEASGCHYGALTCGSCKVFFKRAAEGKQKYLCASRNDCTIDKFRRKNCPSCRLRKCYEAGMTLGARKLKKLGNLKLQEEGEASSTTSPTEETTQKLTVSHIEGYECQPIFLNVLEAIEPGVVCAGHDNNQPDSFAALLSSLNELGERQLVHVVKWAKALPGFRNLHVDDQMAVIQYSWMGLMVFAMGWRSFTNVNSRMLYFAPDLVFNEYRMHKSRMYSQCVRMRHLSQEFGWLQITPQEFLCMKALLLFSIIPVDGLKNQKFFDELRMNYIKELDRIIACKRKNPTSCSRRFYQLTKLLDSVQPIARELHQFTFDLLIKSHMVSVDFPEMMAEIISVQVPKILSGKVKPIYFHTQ
Experimental: as §1
VCaP cells were chased from ATCC and cultured in Dulbecco's Modified Eagle's Medium (ATCC), supplemented with 10% FBS (ATCC) and Penicillin/Streptomycin (Life Technologies). DMSO control and compound treatments (0.0001 μM to 1 μM) were performed in 96-well plates for 16 h. cells were harvested, and lysed with Cell Lysis Buffer (catalog #9803) (20 mM Tris-HCl, pH 7.5, 150 mM NaCl, 1 mM Na2EDTA, 1 mM EGTA, 1% Triton, 2.5 mM sodium pyrophosphate, 1 mM B-glycerophosphate, 1 mM Na3VO4, 1 μg/mL leupeptin. Lysates were clarified at 16,000 g for 10 minutes, and loaded into PathScan AR ELISA (Cell Signaling Catalog #12850). The PathScan Total Androgen Receptor Sanwich ELISA Kit is a solid phase sandwich enzyme-linked immunosorbent assay (ELISA) that detects endogenous levels of total androgen receptor protein. An Androgen Receptor Rabbit mAb has been coated onto the microwells. After incubation with cell lysates, androgen receptor protein is captured by the coated antibody. Following extensive washing, an Androgen receptor Mouse Detection mAbis added to detect the captured androgen receptor protein. Anti-mouse IgG, HRP-linked Antibody is then used to recognize the bound detection antibody. HRP substrate, TMB, is added to develop color. The magnitude of absorbance for the developed color is proportional to the quantity of total androgen receptor protein.

For `CC(C)(C)CC1NC(C(=O)NCCCOCCCCCOc2ccc(N3C(=S)N(c4ccc(C#N)c(C(F)(F)F)c4)C(=O)C3(C)C)cc2)C(c2cccc(Cl)c2F)C1(C#N)c1ccc(Cl)cc1F` (stereo not shown) [Compound A2434, 3-(3-chloro-2-fluorophenyl)-4-(4-chloro-2-fluorophenyl)-4-cyano-N-(3-{[5-(4-{3-[4-cyano-3-(trifluoromethyl)phenyl]-5,5-dimethyl-4-oxo-2-sulfanylideneimidazolidin-1-yl}phenoxy)pentyl]oxy}propyl)-5-(2,2-dimethylpropyl)pyrrolidine-2-carboxamide], which AR degradation (%) at 1 µM is on record?
Its AR degradation (%) at 1 µM is > 50%.

For `COc1cc(C(=O)NCCCOCCCCCOc2ccc(N3C(=S)N(c4ccc(C#N)c(C(F)(F)F)c4)C(=O)C3(C)C)cc2)ccc1NC(=O)C1NC(CC(C)(C)C)C(C#N)(c2ccc(Cl)cc2F)C1c1cccc(Cl)c1F` (stereo not shown) [Compound A2435, 3-(3-chloro-2-fluorophenyl)-4-(4-chloro-2-fluorophenyl)-4-cyano-N-{4-[(3-{[5-(4-{3-[4-cyano-3-(trifluoromethyl)phenyl]-5,5-dimethyl-4-oxo-2-sulfanylideneimidazolidin-1-yl}phenoxy)pentyl]oxy}propyl)carbamoyl]-2-methoxyphenyl}-5-(2,2-dimethylpropyl)pyrrolidine-2-carboxamide], which AR degradation (%) at 1 µM is on record?
Its AR degradation (%) at 1 µM is > 50%.

Which AR degradation (%) at 1 µM does the source give for `CC(C)(C)C[C@@H]1NC(C(=O)NCCOCCOCCOCCOc2ccc(C(=O)N[C@H]3C(C)(C)[C@H](Oc4ccc(C#N)c(Cl)c4)C3(C)C)cc2)[C@H](c2cccc(Cl)c2F)[C@@]1(C#N)c1ccc(Cl)cc1F` (stereo partly drawn) [Compound A1603, 3-(3-chloro-2-fluorophenyl)-4-(4-chloro-2-fluorophenyl)-4-cyano-5-(2,2-dimethylpropyl)-N-[1-(4-{[(1,3-trans)-3-(3-chloro-4-cyanophenoxy)-2,2,4,4-tetramethylcyclobutyl]carbamoyl}phenyl)-1,4,7,10-tetraoxadodecan-12-yl]pyrrolidine-2-carboxamide] here?
Its AR degradation (%) at 1 µM is 0 to 25%.

How did the AR degradation (%) at 1 µM turn out when `CCOc1cc(C(C)(C)C)ccc1C1=NC(C)(c2ccc(Cl)cc2)C(C)(c2ccc(Cl)cc2)N1C(=O)N1CCN(CCOCCOCCOCCOCCOCCOc2ccc(N3C(=S)N(c4ccc(C#N)c(C(F)(F)F)c4)C(=O)C3(C)C)cc2)CC1` (stereo not shown) [Compound A702, 4-(3-{4-[(17-{4-[2-(4-tert-butyl-2-ethoxyphenyl)-4,5-bis(4-chlorophenyl)-4,5-dimethyl-4,5-dihydro-1H-imidazole-1-carbonyl]piperazin-1-yl}-3,6,9,12,15-pentaoxaheptadecan-1-yl)oxy]phenyl}-4,4-dimethyl-5-oxo-2-sulfanylideneimidazolidin-1-yl)-2-(trifluoromethyl)benzonitrile] was run?
Its AR degradation (%) at 1 µM is 25 to 50%.

With `CC(C)(C)C[C@@H]1NC(C(=O)NCCOCCOCCOCCOCCOCCOc2ccc(C(=O)N[C@H]3C(C)(C)[C@H](Oc4ccc(C#N)c(Cl)c4)C3(C)C)cc2)[C@H](c2cccc(Cl)c2F)[C@@]1(C#N)c1ccc(Cl)cc1F` (stereo partly drawn) [Compound A1688, 3-(3-chloro-2-fluorophenyl)-4-(4-chloro-2-fluorophenyl)-4-cyano-5-(2,2-dimethylpropyl)-N-[1-(4-{[(1,3-trans)-3-(3-chloro-4-cyanophenoxy)-2,2,4,4-tetramethylcyclobutyl]-carbamoyl}phenyl)-1,4,7,10,13,16-hexaoxaoctadecan-18-yl]pyrrolidine-2-carboxamide] as the compound, how does the AR degradation (%) at 1 µM read?
Its AR degradation (%) at 1 µM is 0 to 25%.

system: p53; assay: Western blot of HCT116 cells, p53 level; type: cell-based, human; conditions: Western blot (FIG. 2, FIG. 3)

With `COc1cc(C(=O)NCCOCCOCCOCCOCC(=O)N[C@H](C(=O)N2C[C@H](O)C[C@H]2C(=O)NCc2ccc(-c3scnc3C)cc2)C(C)(C)C)ccc1NC(=O)[C@@H]1N[C@@H](CC(C)(C)C)[C@](C#N)(c2ccc(Cl)cc2F)[C@H]1c1cccc(Cl)c1F` (single isomer, unassigned) [Compound A1896] as the compound, how does the p53 level increase read?
Its p53 level increase is “dose dependent p53 level increase”.

Which p53 level increase does the source give for `COc1cc(C(=O)NCCOCCOCCOCC(=O)N[C@H](C(=O)N2C[C@H](O)C[C@H]2C(=O)NCc2ccc(-c3scnc3C)cc2)C(C)(C)C)ccc1NC(=O)[C@@H]1N[C@@H](CC(C)(C)C)[C@](C#N)(c2ccc(Cl)cc2F)[C@H]1c1cccc(Cl)c1F` [Compound A1910, (2R,3S,4R,5S)-3-(3-chloro-2-fluorophenyl)-4-(4-chloro-2-fluorophenyl)-4-cyano-5-(2,2-dimethylpropyl)-N-{4-[(2-{2-[2-({[(2S)-1-[(2S,4R)-4-hydroxy-2-({[4-(4-methyl-1,3-thiazol-5-yl)phenyl]methyl}-carbamoyl)pyrrolidin-1-yl]-3,3-dimethyl-1-oxobutan-2-yl]carbamoyl}methoxy)-ethoxy]ethoxy}ethyl)carbamoyl]-2-methoxyphenyl}pyrrolidine-2-carboxamide] here?
Its p53 level increase is “dose dependent p53 level increase”.

How did the p53 level increase turn out when `COc1cc(C(=O)NCCOCCOCC(=O)N[C@H](C(=O)N2C[C@H](O)C[C@H]2C(=O)NCc2ccc(-c3scnc3C)cc2)C(C)(C)C)ccc1NC(=O)[C@@H]1N[C@@H](CC(C)(C)C)[C@](C#N)(c2ccc(Cl)cc2F)[C@H]1c1cccc(Cl)c1F` [Compound A1907] was run?
Its p53 level increase is “dose dependent p53 level increase”.

How did the p53 level increase turn out when `COc1cc(C(=O)NCCOCCOCCOCCOCC(=O)N[C@H](C(=O)N2C[C@H](O)C[C@H]2C(=O)NCc2ccc(-c3scnc3C)cc2)C(C)(C)C)ccc1NC(=O)C1NC(CC(C)(C)C)C(C#N)(c2ccc(Cl)cc2F)C1c1cccc(Cl)c1F` (mixture of isomers) [Compound A1895, 3-(3-chloro-2-fluorophenyl)-4-(4-chloro-2-fluorophenyl)-4-cyano-5-(2,2-dimethylpropyl)-N-{4-[(1-{[(2S)-1-[(2S,4R)-4-hydroxy-2-({[4-(4-methyl-1,3-thiazol-5-yl)phenyl]methyl}carbamoyl)pyrrolidin-1-yl]-3,3-dimethyl-1-oxobutan-2-yl]carbamoyl}-2,5,8,11-tetraoxatridecan-13-yl)carbamoyl]-2-methoxyphenyl}pyrrolidine-2-carboxamide] was run?
Its p53 level increase is “dose dependent p53 level increase”.
